In patent publication US8895717B2, “Delivery of siRNA by neutral lipid compositions” (The Board of Regents of the University of Texas System, priority 2005, dated 2014):
d = 2'-deoxy (DNA); r = 2'-OH (RNA)

Legend:
HeyA8 orthotopic model = assay: Angiogenesis (MVD), proliferation (PCNA), apoptosis (TUNEL), VEGF and MMP-9 in harvested tumors; type: in vivo, nude mice; settings: for endothelial cell apoptosis: CD31 and TUNEL dual localization
Protocol: Expression of PCNA was determined by IHC analysis using paraffin-embedded tumors. Sections (8-μm thick) were deparaffinized in xylene, treated with a graded series of alcohol [100%, 95%, 80% ethanol/double distilled H2O (v/v)], and rehydrated in PBS (pH 7.5). Antigen retrieval was performed by microwave heating for 5 minutes in 0.1 M citrate buffer pH 6.0, followed by blocking of endogenous […] with 3% H2O2 in methanol for 5 min. After PBS wash ×2, slides were blocked with 5% normal horse serum and 1% normal goat serum in PBS for 15 min at room temperature, followed by incubation with primary antibody (anti-PCNA, PC-10, mouse IgG, Dako), in blocking solution overnight at 4° C. After two PBS washes, the appropriate secondary antibody conjugated to horseradish peroxidase, in blocking solution, was added for 1 hour at room temperature. HRP was detected with DAB (Phoenix Biotechnologies, Huntsville, Ala.) substrate for 5 minutes, washed, and counterstained with Gil No. 3 hematoxylin (Sigma) for 20 sec. IHC for CD31 was performed on freshly cut frozen tissue. […] The primary antibody used was anti-CD31 (PECAM-1, rat IgG, Pharmingen). Staining for PCNA and CD31 was conducted on tumors collected at the conclusion of 4 week therapy trials.
To quantify MVD, 10 random 0.159-mm^2 fields at ×100 final magnification were examined for each tumor (1 slide per mouse, 5 slides per group), and the number of microvessels per field were counted. A single microvessel was defined as a discrete cluster or single cell stained positive for CD31 (CD31), and the presence of a lumen was required for scoring as a microvessel. To quantify PCNA expression, the number of positive cells (DAB staining) was counted in 10 random 0.159-mm^2 fields at ×100 magnification. To quantify TUNEL positive cells, the number of green fluorescence positive cells was counted in 10 random 0.01-mm^2 fields at ×400 magnification.
Expression of PCNA was determined by IHC analysis using paraffin-embedded tumors. Sections (8-μm thick) were mounted on positively charged Superfrost slides (Fisher Scientific Co., Houston, Tex.) and dried overnight. Sections were deparaffinized in xylene, treated with a graded series of alcohol [100%, 95%, 80% ethanol/double distilled H2O (v/v)], and rehydrated in PBS (pH 7.5). Antigen was retrieved by placing the slides in water and then boiling them in a microwave on high power for 5 min. Expression of CD31 was determined using fresh frozen tissues that were cut into 4-μm thick sections and mounted on positively charged slides. The slides were stored at −80° C.; sections were fixed in cold acetone for 10 min. and then washed twice with PBS for 3 min each time. A positive reaction was visualized by incubating the slides with stable 3,3 diaminobenzidine for 10-20 min. The sections were rinsed with distilled water, counterstained with Gill's hematoxylin for 1 min and mounted with Universal mount (Research Genetics).
To determine potential mechanisms underlying the efficacy of anti-FAK based therapy, its effects on several biological endpoints were examined, including angiogenesis (MVD), proliferation (PCNA), and apoptosis (TUNEL). Due to growing evidence related to FAK and tumor angiogenesis (Kornberg et al., 2004; Mitra et al., 2005). The inventors evaluated vessel density (FIG. 14B) in the tumors harvested from the studies described above. […]

HeyA8 cells = assay: In vivo therapy with DOPC-FAK siRNA, HeyA8 model; set-up: species or system nude mice; settings: for Incidence (%) / No. Nodules: siRNA in DOPC twice weekly, docetaxel 50 μg weekly
Protocol: siRNA for in vivo delivery was incorporated into the phospholipid 1,2-dioleoyl-sn-glycero-3-phosphatidylcholine (DOPC). DOPC and siRNA were mixed in the presence of excess tertiary-butanol at a ratio of […], as previously described (Landen et al., 2005). Tween-20 was added to the mixture at a ratio of 1:19. The mixture was vortexed, frozen in an acetone/dry ice bath, and lyophilized. Before in vivo administration, this preparation was hydrated with normal (0.9%) saline at a concentration of 15 μg/ml to achieve the desired dose of 150-200 μl per injection. To estimate the quantity of siRNA not taken up by liposomes free siRNA was separated from liposomes by using filter units with a 30,000 nominal molecular weight limit (Millipore Corp, Billerica, Mass.). The liposomal suspension was added to the filters and centrifuged at 5,000 g for 40 min at room temperature. Fractions were collected, the material trapped in the filter was reconstituted with 0.9% saline, and the amount of siRNA in the collected fraction and eluent were measured by spectrophotometry.
To produce tumors, SKOV3ip1, Hey A8-MDR cells (1×10^6 cells/0.2 ml of HBSS) and Hey A8 cells (2.5×10^5 cells/0.2 ml of HBSS) were injected interperitoneally (i.p.) into the mice. For in vivo injections, cells were trypsinized and centrifuged at 1000 rpm for 7 minutes at 4° C., washed twice with PBS and reconstituted in serum-free Hank's balanced salt solution (HBSS, Life Technologies, Carlsbad, Calif.). Only single-cell suspensions with >95% viability, as determined by trypan blue exclusion, were used for the in vivo injections. Mice (n=10 per group) were monitored for adverse effects of therapy and were sacrificed on day 35 (SKOV3ip1) or day 28 (HeyA8 or HeyA8-MDR) or when any of the mice began to appear moribund. Mouse weight, tumor weight, and tumor distribution were recorded. Tissue specimens were snap frozen for lysate preparation, fixed in formalin for paraffin embedding or frozen on OCT compound (Miles, Inc., Elkhart, Ind.) for frozen slide preparation.
Based on the results of preliminary dose-response studies, a series of three separate therapy studies were initiated using the optimal FAK siRNA dosage. Tumor cells were injected i.p. and 7 days later, the mice were randomly assigned to five treatment groups: empty liposome twice weekly, non-specific control […] siRNA (3 μg) twice weekly, control FAK siRNA (3 μg) twice weekly in combination with 50 μg docetaxel weekly, FAK siRNA twice weekly and FAK siRNA (3 μg) twice weekly in addition to 50 μg docetaxel weekly.
The SKOV3ip1 or HeyA8 ovarian cancer cells were implanted into the peritoneal cavity of athymic nude mice for experiments designed to test the therapeutic potential of FAK-targeted inhibition of gene expression. Seven days later, therapy was started according to the following five treatment groups: 1) empty liposomes; 2) non-specific siRNA-DOPC; 3) docetaxel plus non-specific siRNA-DOPC; 4) FAK targeted siRNA-DOPC; and 5) docetaxel plus FAK-targeted siRNA-DOPC. The animals were sacrificed after 4 weeks of therapy and a necropsy was performed. The data for these therapies' effects on SKOV3ip1 and HeyA8 are summarized in FIGS. 6A and 6B, respectively. […] Treatment with FAK siRNA alone or docetaxel plus control siRNA were effective in inhibiting tumor growth (54 to 74%) in both cell lines compared with control (FIG. 13).

FAK siRNA: sense r(CCACCUGGGCCAGUAUUAU)d(TT), antisense r(AUAAUACUGGCCCAGGUGG)d(TT); for in vivo delivery incorporated into DOPC (sense CCACCUGGGCCAGUAUUAUTT; antisense AUAAUACUGGCCCAGGUGGTT; sugars from the 5' end r19 d2, backbone not given here)
endothelial cell apoptosis (HeyA8 orthotopic model): significantly increased | mean MVD compared with empty liposomes (HeyA8 orthotopic model; CD31 staining): mean MVD was reduced | VEGF and MMP-9 expression (HeyA8 orthotopic model; IHC): substantially reduced | PCNA expression compared to empty liposome or control siRNA (HeyA8 orthotopic model; mouse, in vivo): Minimal reduction of PCNA expression | Incidence (%) (HeyA8 cells): 70% | No. Nodules (HeyA8 cells): 1.7

control siRNA: sense r(UUUUCCGAACGUGUCACGU)dTT, antisense r(ACGUGACACGUUCGGAGAA)dTT, no homology with human mRNA; in vivo in DOPC (sense UUUUCCGAACGUGUCACGUTT; antisense ACGUGACACGUUCGGAGAATT; sugars from the 5' end r19 d2, backbone not given here)
endothelial cell apoptosis (HeyA8 orthotopic model): no apotosis seen in endothelial cells | reduction of tumors compared with empty liposomes (HeyA8 cells): about 39% | Incidence (%) (HeyA8 cells): 100% | No. Nodules (HeyA8 cells): 4.0
